In patent publication US20100144741A1, “ETHANOLAMINE DERIVATIVES USEFUL AS BACE INHIBITORS” (priority 2006, published 2010):

Target: T1, Human BACE (Homo sapiens, UniProt P56817)
T1 construct: Recombinant BACE (extracellular domain, expressed in baculovirus and purified using standard methods); made in house
Test: Test 1: Inhibition of Human BACE
Assay type: biochemical
Details: recombinant BACE extracellular domain, fluorescence-quenched APP-derived peptide substrate, acetate buffer pH 4.5
Protocol: Test 1: Inhibition of Human BACE
Recombinant BACE (extracellular domain, expressed in baculovirus and purified using standard methods) at 0.1-10 nM concentration is incubated with the test compound at various concentrations for 1 hour at room temperature in 10-100 mM acetate buffer, pH 4.5, containing 0.1% CHAPS. Synthetic fluorescence-quenched peptide substrate, derived from the sequence of APP and containing a suitable fluorophore-quencher pair is added to a final concentration of 1-5 μM and the increase in fluorescence is recorded at a suitable excitation/emission wavelength in a microplate spectro-fluorimeter for 5-30 minutes in 1-minute intervals. IC50 values are calculated from percentage of inhibition of BACE-activity as a function of the test compound concentration.

T1 sequence (P56817 46-457 limits assumed): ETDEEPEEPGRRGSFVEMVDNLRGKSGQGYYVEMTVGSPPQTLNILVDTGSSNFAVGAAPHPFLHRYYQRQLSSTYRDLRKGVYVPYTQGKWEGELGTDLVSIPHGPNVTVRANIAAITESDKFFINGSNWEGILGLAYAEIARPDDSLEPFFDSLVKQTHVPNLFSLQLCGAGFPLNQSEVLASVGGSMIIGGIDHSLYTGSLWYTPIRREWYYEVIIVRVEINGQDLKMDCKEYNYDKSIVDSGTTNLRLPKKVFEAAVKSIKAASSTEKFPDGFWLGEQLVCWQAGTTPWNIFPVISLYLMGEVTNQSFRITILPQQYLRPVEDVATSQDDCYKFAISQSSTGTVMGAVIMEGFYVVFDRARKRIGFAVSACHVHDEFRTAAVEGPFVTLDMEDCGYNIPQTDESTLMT

IC50: 23 µM
SMILES: CC(=O)N[C@@H](Cc1ccc(Nc2cc(-c3ccccc3)ncn2)cc1)[C@H](O)CNC1(c2cccc(C(C)C)c2)CC1 [Example 2, N-{(1S,2R)-2-Hydroxy-3-[1-(3-isopropyl-phenyl)-cyclopropylamino]-1-[4-(6-phenyl-pyrimidin-4-ylamino)-benzyl]-propyl}-acetamide]
